What all share (experiment): biochemical
Assay [1] concerns the target DYRK1B (Homo sapiens, UniProt Q9Y463). The essentials: (§1)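 Human kinases phosphorylating kinase-specific synthetic peptides, assayed by mobility shift (MSA) or IMAP fluorescence polarization, in 20 mM HEPES pH 7.5, 0.01% Triton X-100, 2 mM DTT with substrate/ATP-metal. Reactions ran 1 or 5 h at room temperature; activity = P/(P + S) from product and substrate peak heights.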

Assay [2] deals with T1, AurA/TPX2 (Homo sapiens, UniProt O14965).
T1 construct: gene AURKA
The essentials:
as §1

Assay [3] addresses ALK(G1202R) (Homo sapiens, UniProt Q9UM73, G1202R). The essentials:
as §1

For assay [4], the target named is MET (Homo sapiens, UniProt P08581). The essentials: as §1
Assay [5] deals with KIT(D816E) (Homo sapiens, UniProt P10721, D816E). The essentials: as §1
The target of assay [6] is SPHK2 (Homo sapiens, UniProt Q9NRA0). In a few lines:
as §1

Assay [7] deals with T2, LYNb (Homo sapiens, UniProt P07948).
T2 construct: gene LYN; isoform b
In a few lines: as §1

For assay [8], the target named is KIT(V654A) (Homo sapiens, UniProt P10721, V654A). In a few lines:
as §1

For assay [9], the target named is MAP4K2 (Homo sapiens, UniProt Q12851). In a few lines: as §1
The target of assay [10] is EGFR(L858R) (Homo sapiens, UniProt P00533, L858R). The essentials:
as §1

SMILES strings stand for the structures.

The source of these data is PMC5448077, “Development of an orally available inhibitor of CLK1 for skipping a mutated dystrophin exon in Duchenne muscular dystrophy” (Scientific Reports, 2017).

DYRK1B, sequence (Q9Y463 whole entry): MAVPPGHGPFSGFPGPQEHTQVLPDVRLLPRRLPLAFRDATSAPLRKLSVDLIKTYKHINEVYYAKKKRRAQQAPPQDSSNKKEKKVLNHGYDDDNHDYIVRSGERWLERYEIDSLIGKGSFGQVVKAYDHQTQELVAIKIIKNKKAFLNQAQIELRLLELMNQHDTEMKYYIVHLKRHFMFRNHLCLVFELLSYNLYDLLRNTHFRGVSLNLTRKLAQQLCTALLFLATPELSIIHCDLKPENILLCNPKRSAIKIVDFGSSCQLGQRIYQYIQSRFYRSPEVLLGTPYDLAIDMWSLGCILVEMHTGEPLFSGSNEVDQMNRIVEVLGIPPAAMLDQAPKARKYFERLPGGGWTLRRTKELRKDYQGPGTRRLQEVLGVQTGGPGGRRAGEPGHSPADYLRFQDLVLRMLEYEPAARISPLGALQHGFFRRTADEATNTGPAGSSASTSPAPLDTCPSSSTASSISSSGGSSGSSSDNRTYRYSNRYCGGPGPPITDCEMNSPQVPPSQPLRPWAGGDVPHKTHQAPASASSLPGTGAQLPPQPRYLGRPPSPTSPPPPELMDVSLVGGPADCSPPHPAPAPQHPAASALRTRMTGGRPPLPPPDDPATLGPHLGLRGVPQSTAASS
EGFR(L858R), sequence (P00533 whole entry L858R): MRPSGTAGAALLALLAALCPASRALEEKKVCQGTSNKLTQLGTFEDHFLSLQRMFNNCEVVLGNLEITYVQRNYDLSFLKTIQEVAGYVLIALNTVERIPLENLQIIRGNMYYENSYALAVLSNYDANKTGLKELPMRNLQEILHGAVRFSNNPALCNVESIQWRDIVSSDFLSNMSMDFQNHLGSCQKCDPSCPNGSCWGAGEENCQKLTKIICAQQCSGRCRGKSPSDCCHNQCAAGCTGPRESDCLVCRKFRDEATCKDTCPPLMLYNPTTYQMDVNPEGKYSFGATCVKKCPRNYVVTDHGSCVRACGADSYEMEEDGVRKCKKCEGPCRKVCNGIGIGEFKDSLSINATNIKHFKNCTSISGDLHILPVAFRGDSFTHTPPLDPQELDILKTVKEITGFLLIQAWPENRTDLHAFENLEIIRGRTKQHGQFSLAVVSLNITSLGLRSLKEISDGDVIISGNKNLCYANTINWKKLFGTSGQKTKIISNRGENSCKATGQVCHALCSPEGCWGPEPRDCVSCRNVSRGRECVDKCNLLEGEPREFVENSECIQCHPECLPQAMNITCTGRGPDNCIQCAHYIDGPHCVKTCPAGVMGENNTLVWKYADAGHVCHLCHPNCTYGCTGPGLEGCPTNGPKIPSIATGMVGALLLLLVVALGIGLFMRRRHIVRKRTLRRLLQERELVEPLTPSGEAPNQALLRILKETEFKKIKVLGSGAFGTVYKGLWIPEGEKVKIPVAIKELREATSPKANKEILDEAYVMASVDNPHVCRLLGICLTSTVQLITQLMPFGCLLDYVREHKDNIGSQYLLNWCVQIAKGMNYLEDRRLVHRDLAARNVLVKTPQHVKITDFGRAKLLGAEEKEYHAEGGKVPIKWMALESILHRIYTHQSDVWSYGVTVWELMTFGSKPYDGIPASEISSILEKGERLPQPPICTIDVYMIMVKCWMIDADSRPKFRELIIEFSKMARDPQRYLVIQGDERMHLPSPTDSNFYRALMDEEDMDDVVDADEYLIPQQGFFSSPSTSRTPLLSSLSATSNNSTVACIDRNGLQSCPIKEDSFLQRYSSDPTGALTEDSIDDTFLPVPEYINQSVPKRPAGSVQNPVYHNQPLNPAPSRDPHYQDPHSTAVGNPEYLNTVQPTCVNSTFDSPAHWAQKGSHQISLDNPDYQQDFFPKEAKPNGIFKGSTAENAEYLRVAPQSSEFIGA
MET, sequence (P08581 whole entry): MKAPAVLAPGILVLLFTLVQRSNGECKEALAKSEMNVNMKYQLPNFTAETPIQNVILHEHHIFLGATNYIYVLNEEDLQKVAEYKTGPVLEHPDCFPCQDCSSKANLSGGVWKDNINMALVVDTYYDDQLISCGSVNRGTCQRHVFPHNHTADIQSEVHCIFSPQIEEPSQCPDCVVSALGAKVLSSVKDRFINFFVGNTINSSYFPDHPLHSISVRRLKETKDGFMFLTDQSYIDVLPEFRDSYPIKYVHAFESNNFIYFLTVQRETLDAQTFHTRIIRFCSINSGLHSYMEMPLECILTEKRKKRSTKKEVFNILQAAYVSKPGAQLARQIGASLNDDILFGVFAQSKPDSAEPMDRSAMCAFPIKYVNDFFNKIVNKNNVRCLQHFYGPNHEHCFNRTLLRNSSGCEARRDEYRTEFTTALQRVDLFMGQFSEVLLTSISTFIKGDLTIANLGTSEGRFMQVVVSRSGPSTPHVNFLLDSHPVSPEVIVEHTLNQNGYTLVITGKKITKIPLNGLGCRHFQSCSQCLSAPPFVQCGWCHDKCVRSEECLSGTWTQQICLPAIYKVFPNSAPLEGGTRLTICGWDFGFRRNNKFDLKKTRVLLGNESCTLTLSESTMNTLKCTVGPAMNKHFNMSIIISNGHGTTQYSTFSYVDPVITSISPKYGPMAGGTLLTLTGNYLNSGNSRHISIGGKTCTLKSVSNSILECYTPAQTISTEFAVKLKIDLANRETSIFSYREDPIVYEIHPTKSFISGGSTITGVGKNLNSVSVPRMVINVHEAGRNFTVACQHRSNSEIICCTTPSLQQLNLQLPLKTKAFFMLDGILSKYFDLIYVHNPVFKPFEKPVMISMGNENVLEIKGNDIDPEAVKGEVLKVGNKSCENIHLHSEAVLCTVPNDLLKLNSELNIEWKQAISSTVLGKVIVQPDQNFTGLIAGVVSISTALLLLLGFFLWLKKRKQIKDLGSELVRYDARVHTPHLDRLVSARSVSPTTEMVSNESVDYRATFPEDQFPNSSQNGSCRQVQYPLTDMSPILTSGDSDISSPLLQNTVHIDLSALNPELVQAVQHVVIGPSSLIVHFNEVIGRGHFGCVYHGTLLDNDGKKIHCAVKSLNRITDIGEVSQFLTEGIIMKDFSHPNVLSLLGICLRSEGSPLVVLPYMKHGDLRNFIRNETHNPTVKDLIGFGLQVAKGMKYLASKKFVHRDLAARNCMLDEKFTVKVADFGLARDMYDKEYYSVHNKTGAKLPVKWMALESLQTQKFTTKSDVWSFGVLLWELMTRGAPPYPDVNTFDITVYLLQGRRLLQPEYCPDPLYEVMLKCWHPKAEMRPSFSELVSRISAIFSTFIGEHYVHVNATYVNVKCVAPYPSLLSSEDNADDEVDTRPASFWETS
KIT(V654A), sequence (P10721 whole entry V654A): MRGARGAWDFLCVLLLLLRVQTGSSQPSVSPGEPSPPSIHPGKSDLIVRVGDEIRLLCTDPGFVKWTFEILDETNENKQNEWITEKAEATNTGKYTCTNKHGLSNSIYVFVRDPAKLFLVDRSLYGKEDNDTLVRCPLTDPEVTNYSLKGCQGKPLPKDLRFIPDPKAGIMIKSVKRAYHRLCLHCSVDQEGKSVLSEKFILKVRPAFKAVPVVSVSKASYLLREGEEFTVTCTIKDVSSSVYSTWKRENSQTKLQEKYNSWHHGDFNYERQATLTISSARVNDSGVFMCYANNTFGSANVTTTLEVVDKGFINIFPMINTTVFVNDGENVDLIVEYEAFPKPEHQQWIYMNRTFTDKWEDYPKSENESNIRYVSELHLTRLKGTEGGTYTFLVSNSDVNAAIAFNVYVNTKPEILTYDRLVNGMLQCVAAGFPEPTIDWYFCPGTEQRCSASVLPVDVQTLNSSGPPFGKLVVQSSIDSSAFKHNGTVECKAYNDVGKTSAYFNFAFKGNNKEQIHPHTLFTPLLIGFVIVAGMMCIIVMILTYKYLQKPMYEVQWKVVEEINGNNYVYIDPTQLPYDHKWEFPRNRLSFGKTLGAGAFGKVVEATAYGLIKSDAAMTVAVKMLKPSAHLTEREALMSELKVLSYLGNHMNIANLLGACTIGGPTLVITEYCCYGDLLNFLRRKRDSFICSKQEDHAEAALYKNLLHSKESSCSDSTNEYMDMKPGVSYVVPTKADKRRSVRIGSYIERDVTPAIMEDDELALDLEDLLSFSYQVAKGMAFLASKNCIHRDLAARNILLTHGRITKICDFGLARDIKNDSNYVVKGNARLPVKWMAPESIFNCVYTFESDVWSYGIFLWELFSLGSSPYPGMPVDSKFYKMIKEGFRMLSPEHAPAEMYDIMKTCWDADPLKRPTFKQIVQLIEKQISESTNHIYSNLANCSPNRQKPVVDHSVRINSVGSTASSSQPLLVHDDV
SPHK2, sequence (Q9NRA0 whole entry): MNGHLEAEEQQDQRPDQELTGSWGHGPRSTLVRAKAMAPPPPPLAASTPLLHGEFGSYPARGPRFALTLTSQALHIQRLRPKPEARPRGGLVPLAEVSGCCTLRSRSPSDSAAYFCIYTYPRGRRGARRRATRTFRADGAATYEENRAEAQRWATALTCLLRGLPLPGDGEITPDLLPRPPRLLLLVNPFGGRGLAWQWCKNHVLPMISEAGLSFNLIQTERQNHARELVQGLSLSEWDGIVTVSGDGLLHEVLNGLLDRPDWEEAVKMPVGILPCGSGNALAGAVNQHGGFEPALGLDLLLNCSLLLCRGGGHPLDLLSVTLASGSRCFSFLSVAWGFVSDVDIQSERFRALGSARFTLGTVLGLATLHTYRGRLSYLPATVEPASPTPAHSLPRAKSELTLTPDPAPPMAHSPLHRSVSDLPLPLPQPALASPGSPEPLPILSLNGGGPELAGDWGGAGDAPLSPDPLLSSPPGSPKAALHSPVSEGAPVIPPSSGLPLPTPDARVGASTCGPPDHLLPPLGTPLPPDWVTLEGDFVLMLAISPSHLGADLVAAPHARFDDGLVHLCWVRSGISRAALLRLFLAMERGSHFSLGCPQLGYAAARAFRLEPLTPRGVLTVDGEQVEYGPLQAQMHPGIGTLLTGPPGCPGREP
KIT(D816E), sequence (P10721 whole entry D816E): as the sequence (P10721 whole entry V654A) above, with A654V, D816E counted along it

Regarding `c1cc(-c2ccc3[nH]ncc3c2)ccn1` [TG693, 5-(4-pyridinyl)-1H-indazole], the inhibition – broadly, the change of the read-out against control, counted positive when it falls – at 1 µM was 76.1% in assay [1]; 8.5% in assay [2]; 3.8% in assay [3]; 13.2% in assay [4]; -6.8% in assay [5]; 4.1% in assay [6]. Also, the inhibition at 1 µM is 0.8% in [7], -1.5% in assay [8], 1.9% in assay [9] and 0.4% in [10].
